The record followed here is ChEMBL document CHEMBL1128168, “An efficient synthesis of the benzhydrylpiperazine delta opioid agonist (+)-BW373U86” (Bioorg Med Chem Lett, 1995).

This test has as its target Delta-type opioid receptor (Homo sapiens) (UniProt P41143). Briefly: Compound was tested for delta-opioid receptor agonistic activity;A - found to be highly selective. The test is classed as functional. The settings on record: filed as agonist.

Delta-type opioid receptor (Homo sapiens), sequence (P41143 whole entry): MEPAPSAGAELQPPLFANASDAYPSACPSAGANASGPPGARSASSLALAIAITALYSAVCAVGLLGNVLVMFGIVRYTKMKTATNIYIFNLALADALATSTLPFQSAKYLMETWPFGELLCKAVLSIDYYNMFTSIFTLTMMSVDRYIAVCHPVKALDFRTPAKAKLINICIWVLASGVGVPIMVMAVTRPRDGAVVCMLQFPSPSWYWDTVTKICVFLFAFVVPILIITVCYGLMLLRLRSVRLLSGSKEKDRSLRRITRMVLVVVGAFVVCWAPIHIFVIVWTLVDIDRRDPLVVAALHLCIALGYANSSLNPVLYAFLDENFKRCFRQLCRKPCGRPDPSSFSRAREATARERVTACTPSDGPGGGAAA

`C=CCN1C[C@H](C)N([C@H](c2ccc(C(=O)N(CC)CC)cc2)c2cccc(O)c2)C[C@H]1C`: the Activity entry was “Agonist”.
